The source of these data is ChEMBL document CHEMBL1201862, “PubChem BioAssay data set” (2004).

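Growth conditions: 96-well plates. Treatment: test compound, 48 hours, 5 concentrations. Analysis: linear interpolation between bracketing concentrations; unreached endpoints set to highest concentration. GI50 marks 50% less growth.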 Calls of active or inactive are those of the source. No stated cut-off is given here; in the data, active = GI50 up to about 1.1 µM and inactive = higher.

Test systems include COLO 205; EKVX; HCC 2998; HCT-15; HT-29; IGROV-1; M14; MCF7; MDA-MB-435; NCI-H226; NCI/ADR-RES; OVCAR-3; OVCAR-4; SF-539; SK-MEL-5; SN12C; SNB-75; SW-620; UACC-62.
Holding throughout (experiment): growth of human tumour cells (NCI), 48 h

Take `O=c1c2ccccc2c2ccccc2c(=O)n1-c1cc2c3ccccc3ccc2c2ccccc12`: the GI50 in the assay with COLO 205 was > 100 µM (inactive); in the assay on EKVX, > 100 µM (inactive); in the assay with HCC 2998, 22.3 µM (inactive); in the assay on HCT-15, greater than 100 µM; in the assay on HT-29, > 100 µM (inactive); in the assay with IGROV-1, > 100 µM (inactive). Besides, the GI50 in the assay on M14 was > 100 µM (inactive); in the assay with MCF7 it was 91.8 µM (inactive); in the assay on MDA-MB-435 it was > 100 µM (inactive); with NCI-H226, > 100 µM (inactive); in the assay on NCI/ADR-RES, > 100 µM (inactive); with OVCAR-3, > 100 µM (inactive). Moreover, the GI50 with OVCAR-4 is > 100 µM (inactive); in the assay with SF-539, > 100 µM (inactive); with SK-MEL-5 it was > 100 µM (inactive); in the assay on SN12C, 84.5 µM (inactive); in the assay on SNB-75, > 100 µM (inactive); with SW-620, > 100 µM (inactive). Further, in the assay with UACC-62, the GI50 is > 100 µM (inactive).

Consider `COc1cccc2c1C(=O)C(=O)c1c-2oc(=O)c2cc(C)cc(OC)c12`, for which the GI50 is 67 µM (inactive) in the assay with COLO 205; 22.5 µM (inactive) in the assay with EKVX; 14.5 µM (inactive) in the assay on HCC 2998; 13.4 µM in the assay on HCT-15; 22.6 µM (inactive) with HT-29; 16.7 µM (inactive) in the assay with IGROV-1. For the same molecule, the GI50 with M14 is 25.3 µM (inactive); with MCF7 it was 23.7 µM (inactive); in the assay on MDA-MB-435, 14.2 µM (inactive); in the assay on NCI-H226 it was 72.8 µM (inactive); in the assay on NCI/ADR-RES, 15.8 µM (inactive); in the assay with OVCAR-3 it was 15.7 µM (inactive). Besides, the GI50 in the assay on OVCAR-4 was 14.9 µM (inactive); in the assay with SF-539, 63 µM (inactive); with SK-MEL-5, 17 µM (inactive); in the assay with SN12C it was 53.8 µM (inactive); in the assay with SNB-75 it was 22.6 µM (inactive); with SW-620, 29.4 µM (inactive). The GI50 in the assay with UACC-62 is 31 µM (inactive).

As to `O=CCCCCCOCc1ccccc1`, the GI50 in the assay with COLO 205 was > 100 µM (inactive); in the assay with EKVX, > 100 µM (inactive); with HCC 2998 it was > 100 µM (inactive); in the assay on HCT-15 it was 37.4 µM; in the assay with HT-29, > 100 µM (inactive); with IGROV-1 it was 40.7 µM (inactive). In addition, the GI50 in the assay on M14 is > 100 µM (inactive); with MCF7 it was 54.8 µM (inactive); in the assay with MDA-MB-435 it was > 100 µM (inactive); in the assay with NCI-H226 it was > 73.6 µM (inactive); in the assay on NCI/ADR-RES, > 55.8 µM (inactive); in the assay with OVCAR-3, > 74 µM (inactive). Also, the GI50 in the assay with OVCAR-4 is > 87.5 µM (inactive); in the assay with SF-539, > 100 µM (inactive); with SK-MEL-5, 25.4 µM (inactive); in the assay with SN12C, 17.7 µM (inactive); in the assay on SNB-75 it was > 78.2 µM (inactive); in the assay on SW-620 it was 60.1 µM (inactive). Besides, in the assay on UACC-62, the GI50 was > 58.1 µM (inactive).

For `c1ccc(-c2nnc(SCc3c[nH]c4ccccc34)n2-c2ccccc2)cc1`, the GI50 in the assay on COLO 205 is > 100 µM (inactive); with EKVX, 21.8 µM (inactive); in the assay with HCC 2998, 27.4 µM (inactive); with HCT-15, 45 µM; in the assay on HT-29 it was 8 µM (inactive); in the assay on IGROV-1 it was 27.2 µM (inactive). In addition, the GI50 in the assay on M14 is 78.9 µM (inactive); in the assay on MCF7, 42.3 µM (inactive); with MDA-MB-435 it was 34.6 µM (inactive); in the assay on NCI-H226 it was 22.7 µM (inactive); with NCI/ADR-RES, 22.6 µM (inactive); in the assay with OVCAR-3, 40.8 µM (inactive). Besides, the GI50 was 29.5 µM (inactive) in the assay with OVCAR-4; 18.9 µM (inactive) with SF-539; 15 µM (inactive) in the assay with SK-MEL-5; 68.4 µM (inactive) in the assay on SN12C; 18.7 µM (inactive) in the assay with SNB-75; 85.1 µM (inactive) in the assay with SW-620. In the assay with UACC-62, the GI50 was 21.5 µM (inactive).

Regarding `CC1OC(OC2C(O[C@H]3CC[C@@]4(C)C(=CC[C@H]5[C@@H]6C[C@@H]7O[C@]8(CC[C@@H](C)CO8)[C@@H](C)[C@@H]7[C@@]6(C)CC[C@@H]54)C3)OC(CO)C(O)C2OC2OC(CO)C(O)C(O)C2O)C(O)C(O)C1O` (stereo partly drawn), the GI50 in the assay with COLO 205 was 1.73 µM (inactive); with EKVX it was 12.4 µM (inactive); in the assay on HCC 2998 it was 1.65 µM (inactive); in the assay on HCT-15, 1.95 µM; with HT-29, 14.7 µM (inactive); in the assay on IGROV-1, 1.76 µM (inactive). Further, the GI50 in the assay on M14 is 2.35 µM (inactive); with MCF7, 2.19 µM (inactive); with MDA-MB-435, 1.81 µM (inactive); in the assay with NCI-H226, 2 µM (inactive); with NCI/ADR-RES, 2.24 µM (inactive); in the assay with OVCAR-3, 1.08 µM (active). Besides, the GI50 with OVCAR-4 is 1.58 µM (inactive); in the assay on SF-539, 2.15 µM (inactive); with SK-MEL-5 it was 2.04 µM (inactive); in the assay on SN12C, 8.75 µM (inactive); in the assay on SNB-75 it was 2.04 µM (inactive); in the assay on SW-620 it was 0.205 µM (active). Moreover, the GI50 in the assay with UACC-62 was 2.33 µM (inactive).

For the molecule `Cc1cccc(/N=N/c2c(C)nn(C(=O)CC(=O)Nc3ccccc3)c2C)c1`, the GI50 in the assay with COLO 205 is > 100 µM (inactive); with EKVX, > 100 µM (inactive); in the assay with HCC 2998, > 100 µM (inactive); in the assay with HCT-15 it was greater than 100 µM; in the assay on HT-29, > 100 µM (inactive); in the assay with IGROV-1 it was > 100 µM (inactive). The GI50 with M14, with MCF7, in the assay on MDA-MB-435, with NCI-H226, in the assay on NCI/ADR-RES and in the assay on OVCAR-3 was > 100 µM (inactive) in each case. Also, the GI50 in the assay with OVCAR-4, in the assay with SF-539, with SK-MEL-5, in the assay with SN12C, in the assay with SNB-75 and in the assay on SW-620 was > 100 µM (inactive) throughout. For the same molecule, in the assay on UACC-62, the GI50 was > 100 µM (inactive).

Consider `COc1cccc2c1C(=O)c1c(O)c3c(c(O)c1C2=O)CC(O)(C(O)CO)CC3OC1CC2C(OC3COCC(C#N)N32)C(C)O1` (stereo not drawn), for which the GI50 in the assay on COLO 205 is < 0.01 µM (active); in the assay with EKVX it was < 0.01 µM (active); in the assay on HCC 2998, < 0.01 µM (active); with HCT-15 it was less than 0.01 µM; in the assay with HT-29, < 0.01 µM (active); with IGROV-1 it was < 0.01 µM (active). The GI50 with M14, with MCF7, in the assay on MDA-MB-435, with NCI-H226, in the assay on NCI/ADR-RES and in the assay on OVCAR-3 was < 0.01 µM (active) in each case. Besides, the GI50 with OVCAR-4, in the assay on SF-539, in the assay with SK-MEL-5, in the assay with SN12C, in the assay on SNB-75 and in the assay with SW-620 was < 0.01 µM (active) in each case. For the same molecule, in the assay on UACC-62, the GI50 was < 0.01 µM (active).
